The target in this assay is T1, prostaglandin E2 type 2 (EP2) receptors (Homo sapiens, UniProt P43116).
T1 construct: These full length receptors are used to prepare 293S cells expressing the EP1, EP2, EP3 and EP4 receptors; expressed in transfected cells; membranes
T1 sequence (P43116 whole entry): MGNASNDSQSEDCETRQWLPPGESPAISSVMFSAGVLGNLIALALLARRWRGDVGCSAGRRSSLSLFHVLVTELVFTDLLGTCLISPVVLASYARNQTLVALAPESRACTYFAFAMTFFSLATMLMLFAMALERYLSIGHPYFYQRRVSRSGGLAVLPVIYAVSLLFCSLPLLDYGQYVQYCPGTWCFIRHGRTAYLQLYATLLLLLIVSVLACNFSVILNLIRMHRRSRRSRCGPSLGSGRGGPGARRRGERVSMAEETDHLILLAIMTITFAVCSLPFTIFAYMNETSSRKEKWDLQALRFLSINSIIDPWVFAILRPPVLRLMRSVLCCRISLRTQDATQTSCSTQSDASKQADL
Put plainly: Assay for Binding to Prostaglandin E2 Receptors (3H-prostaglandin E2 displacement, membranes of transfected 293S cells). As to conditions: concentration displacing 50% of specifically bound 3H-prostaglandin E2, 1 hour at 25° C. The protocol:
Membrane Preparation: All operations are performed at […]. Transfected cells expressing prostaglandin E2 type 1 receptors (EP1), type 2 (EP2), type 3 (EP3) or type 4 (EP4) receptors are harvested and suspended to 2 million cells per ml in Buffer A [50 mM Tris-HCl (pH 7.4), 10 mM MgCl2, 1 mM EDTA, 1 mM Pefabloc peptide, (Boehringer Mannheim Corp., Indianapolis, Ind.), 10 uM Phosporamidon peptide, (Sigma, St. Louis, Mo.), 1 uM pepstatin A peptide, (Sigma, St. Louis, Mo.), 10 uM elastatinal peptide, (Sigma, St. Louis, Mo.), 100 uM antipain peptide, (Sigma, St. Louis, Mo.)]. The cells are lysed by sonification with a Branson Sonifier (Model #250, Branson Ultrasonics Corporation, Danbury, Conn.) in 2 fifteen second bursts. Unlysed cells and debris are removed by centrifugation, at 100×g for 10 min. Membranes are then harvested by centrifugation at 45,000×g for 30 minutes. […] Resuspended membranes are then stored frozen at −80° C. until use.
Binding Assay: Frozen membranes prepared as above are thawed and diluted to 1 mg protein per ml in Buffer A above. […] The membranes with bound ^3H-prostaglandin E2 are trapped by the filter, while the buffer and unbound ^3H-prostaglandin E2 pass through the filter into waste. Each sample is then washed 3 times with 3 ml of [50 mM Tris-HCl (pH 7.4), 10 mM MgCl2, 1 mM EDTA]. The filters are then dried by heating in a microwave oven.
Typically, PCR (polymerase chain reaction) primers corresponding to the 5′ and 3′ ends of the published full length receptor are made according to the well known methods disclosed above and are used in an RT-PCR reaction using the total RNA from human kidney (for EP1), human lung (for EP2), human lung (for EP3) or human lymphocytes (for EP4) as a source. PCR products are cloned by the TA overhang method into pCR2.1 (Invitrogen, Carlsbad, Calif.) and identity of the cloned receptor is confirmed by DNA sequencing.
Stable cell lines expressing the receptor are established following selection of transfected cells with G418.
A word on the IC50: it is the concentration that gives 50% inhibition. A lower IC50 goes with greater potency. `Cc1ccc(C)c(S(=O)(=O)N(CCCc2cccc(Cl)c2)CCCc2ccc(C(=O)O)s2)c1` [Example 6a, 5-(3-((3-(3-Chloro-phenyl)-propyl)-(2,5-dimethyl-benzenesulfonyl)-amino)-propyl)-thiophene-2 carboxylic acid] returned a concentration for half-maximal inhibition (IC50) of 325 nM.

`O=C(O)c1ccc(CCCN(CCCc2cccc(Cl)c2)S(=O)(=O)CCCCNC(=O)c2ccccc2C(=O)O)s1` [Example 6c, 5-(3-((4-(2-Carboxy-benzoylamino)-butane-1-sulfonyl)-(3-(3-chloro-phenyl)-propyl)-amino)-propyl)-thiophene-2-carboxylic acid] displayed a 50% inhibitory concentration (IC50) of 300 nM.

`O=C(O)c1ccc(CCCN(CCCc2cccc(Cl)c2)S(=O)(=O)c2ccc(-n3ncc(=O)[nH]c3=O)cc2)s1` [Example 6d, 5-(3-((3-(3-Chloro-phenyl)-propyl)-(4-(3,5-dioxo-4,5-dihydro-3H-[1,2,4]triazin-2-yl)-benzenesulfonyl)-amino)-propyl)-thiophene-2-carboxylic acid] came in with an IC50 of 170 nM.

`COC(=O)c1ccccc1S(=O)(=O)N(CCCc1cccc(Cl)c1)CCCc1ccc(C(=O)O)s1` [Example 6e, 5-(3-((3-(3-Chloro-Phenyl)-propyl)-(2-methoxycarbonyl-benzenesulfonyl)-amino)-propyl)-thiophene-2-carboxylic acid] yielded an IC50 of 325 nM.

As to `O=C(O)c1ccc(CCCN(CCCc2cccc(Cl)c2)S(=O)(=O)c2ccc(Br)cc2)s1` [Example 6f, 5-(3-((4-Bromo-benzenesulfonyl)-(3-(3-chloro-phenyl)-propyl)-amino)-propyl)-thiophene-2-carboxylic acid], the 50% inhibitory concentration (IC50) is 490 nM.

Compound `CCC(C)(C)c1ccc(S(=O)(=O)N(CCCc2cccc(Cl)c2)CCCc2ccc(C(=O)O)s2)cc1` [Example 6g, 5-(3-((3-(3-Chloro-phenyl)-propyl)-(4-(1,1-dimethyl-propyl)-benzenesulfonyl)-amino)-Propyl)-thiophene-2-carboxylic acid] gave an IC50 of 350 nM.

The compound `Cc1noc(C)c1S(=O)(=O)N(CCCc1cccc(Cl)c1)CCCc1ccc(C(=O)O)s1` [Example 6h, 5-(3-((3-(3-Chloro-phenyl)-propyl)-(3.5-dimethyl-isoxazole-4-sulfonyl)-amino)-propyl)-thiophene-2-carboxylic acid] had a half-inhibitory concentration (IC50) of 140 nM.

With `COc1ccc(OC)c(S(=O)(=O)N(CCCc2cccc(Cl)c2)CCCc2ccc(C(=O)O)s2)c1` [Example 6i, 5-(3-((3-(3-Chloro-phenyl)-propyl)-(2,5-dimethoxy-benzenesulfonyl)-amino)-propyl)-thiophene-2-carboxylic acid], the IC50 was 270 nM.

`O=C(O)c1ccc(CCCN(CCCc2cccc(Cl)c2)S(=O)(=O)c2ccccc2F)s1` [Example 6j, 5-(3-((3-(3-Chloro-phenyl)-propyl)-(2-fluoro-benzenesulfonyl)-amino)-propyl)-thiophene-2-carboxylic acid] registered an IC50 of 375 nM.

For `CC(C)NC(=O)N(CCCc1cccc(Cl)c1)CCCc1ccc(C(=O)O)s1` [Example 7a, 5-(3-(1-(3-(3-Chloro-phenyl)-propyl)-3-isopropyl-ureido)-propyl)-thiophene-2-carboxylic acid], the IC50 was determined as 400 nM.

`O=C(O)c1ccc(CCCN(CCCc2cccc(Cl)c2)C(=O)Nc2ccccc2)s1` [Example 7b, 5-(3-(1-(3-(3-Chloro-phenyl)-propyl)-3-phenyl-ureido)-propyl)-thiophene-2-carboxylic acid] displayed an IC50 of 140 nM.

`O=C(O)c1ccc(CCCN(CCCc2cccc(Cl)c2)C(=O)Nc2ccc(Cl)c(Cl)c2)s1` [Example 7c, 5-(3-(1-(3-(3-Chloro-phenyl)-propyl)-3-(3,4-dichloro-phenyl)-ureido)-propyl)-thiophene-2-carboxylic acid] returned an IC50 of 260 nM.

As for `CCCNC(=O)N(CCCc1cccc(Cl)c1)CCCc1ccc(C(=O)O)s1` [Example 7d, 5-(3-(1-(3-(3-Chloro-Phenyl)-propyl)-3-propyl-ureido)-propyl)-thiophene-2-carboxylic acid], the IC50 was found to be 52 nM.

`O=C(O)c1ccc(CCCN(CCCc2cccc(Cl)c2)C(=O)Nc2cccc(Cl)c2Cl)s1` [Example 7f, 5-(3-(1-(3-(3-Chloro-phenyl)-propyl)-3-(2,3-dichloro-phenyl)-ureido)-propyl) thiophene-2-carboxylic acid] showed an IC50 of 344 nM.

As for `O=C(O)c1ccc(CCCN(CCCc2cccc(Cl)c2)C(=O)Nc2cc(Cl)cc(Cl)c2)s1` [Example 7g, 5-(3-(1-(3-(3-Chloro-phenyl)-propyl)-3-(3,5-dichloro-phenyl)-ureido)-propyl)-thiophene-2-carboxylic acid], the IC50 came to 412 nM.

`O=C(O)c1ccc(CCCN(CCCc2cccc(Cl)c2)C(=O)Nc2c(F)cccc2F)s1` [Example 7h, 5-(3-(1-(3-(3-Chloro-phenyl)-propyl)-3-(2,6-difluoro-phenyl)-ureido)-propyl)-thiophene-2-carboxylic acid] had a 50% inhibitory concentration (IC50) of 172 nM.

On to `O=C(O)c1ccc(CCCN(CCCc2cccc(Cl)c2)C(=O)N2CCCC2)s1` [Example 8, 5-(3-((3-(3-Chloro-phenyl)-propyl)-(Pyrrolidine-1-carbonyl)-amino)-propyl)-thiophene-2-carboxylic acid], for which the IC50 is 71 nM.

`O=C(O)c1ccc(CCCN(CCCc2cccc(Cl)c2)C(=O)N2CCOCC2)s1` [Example 8a, 5-(3-((3-(3-Chloro-phenyl)-Propyl)-(morpholine-4-carbonyl)-amino)-propyl)-thiophene-2-carboxylic acid] registered a half-maximal inhibitory concentration (IC50) of 180 nM.

In turn, `CC(C)OC(=O)N(CCCc1cccc(Cl)c1)CCCc1ccc(C(=O)O)s1` [Example 8b, 5-(3-((3-(3-Chloro-phenyl)-propyl)-isopropoxycarbonyl-amino)-propyl)-thiophene-2-carboxylic acid] displayed an IC50 of 266 nM.

For the compound `CCCCc1ccc(CN(Cc2cccc(CC(=O)O)c2)S(=O)(=O)c2ccccc2)cc1` [Example 9a, (3-((Benzenesulfonyl-(4-butyl-benzyl)-amino)-methyl)-phenyl)-acetic acid], the half-maximal inhibitory concentration (IC50) is 84.5 nM.

With `CCCCc1ccc(CN(Cc2cccc(CC(=O)O)c2)S(=O)(=O)c2cccs2)cc1` [Example 9b, (3-(((4-Butyl-benzyl)-(thiophene-2-sulfonyl)-amino)-methyl)-phenyl)-acetic acid], the IC50 worked out at 94.5 nM.

For `CCCCc1ccc(CN(Cc2cccc(CC(=O)O)c2)S(=O)(=O)c2ccc(NC(C)=O)cc2)cc1` [Example 9c, (3-(((4-Acetylamino-benzenesulfonyl)-(4-butyl-benzyl)-amino)-methyl)-phenyl)-acetic acid], the half-maximal inhibitory concentration (IC50) came to 490 nM.

The compound `CCCCc1ccc(CN(Cc2cccc(CC(=O)O)c2)S(=O)(=O)c2cccc3nonc23)cc1` [Example 9d, (3-(((Benzo[1,2,5]oxadiazole-4-sulfonyl)-(4-butyl-benzyl)-amino)-methyl)-phenyl)-acetic acid] had a half-inhibitory concentration (IC50) of 203 nM.

Turning to “(3-(((4-Butyl-benzyl)-(pyridine-3-sulfonyl)-amino)-methyl)-phenyl)-acetic acid [Example 9]”, the IC50 worked out at 17 nM.

The record behind these values is patent US20050203086A1, “Methods of treatment using an EP2 selective receptor agonist” (Pfizer Inc., priority 2004, published 2005).
